What was measured:
[1] = tested on: 5-HT1A serotonin receptor sites; conditions: background statement, no reference given; cited from earlier work
5-HT1A receptors = biological target: T1, 5-HT1A receptors (Rattus norvegicus, UniProt P19327); assay: Radioligand binding, displacement of [3H]-8-OH-DPAT in rat hippocampus
T1 sequence (P19327 1-422): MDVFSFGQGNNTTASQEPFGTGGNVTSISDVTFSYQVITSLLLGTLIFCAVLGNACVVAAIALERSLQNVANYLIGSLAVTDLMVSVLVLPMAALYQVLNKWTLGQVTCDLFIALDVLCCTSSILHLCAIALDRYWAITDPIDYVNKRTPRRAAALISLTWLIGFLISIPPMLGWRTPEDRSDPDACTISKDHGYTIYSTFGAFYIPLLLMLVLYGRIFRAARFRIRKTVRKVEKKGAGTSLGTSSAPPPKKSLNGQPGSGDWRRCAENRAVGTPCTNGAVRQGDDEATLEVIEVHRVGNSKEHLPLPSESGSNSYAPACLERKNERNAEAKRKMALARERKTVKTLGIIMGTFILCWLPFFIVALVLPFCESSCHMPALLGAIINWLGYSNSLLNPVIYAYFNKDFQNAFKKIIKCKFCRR

5-HT2A receptors = 5-HT2A receptors (Rattus norvegicus, UniProt P14842); assay: Radioligand binding, displacement of [3H]-ketanserin in rat cortex
Sequence of 5-HT2A receptors (P14842 whole entry): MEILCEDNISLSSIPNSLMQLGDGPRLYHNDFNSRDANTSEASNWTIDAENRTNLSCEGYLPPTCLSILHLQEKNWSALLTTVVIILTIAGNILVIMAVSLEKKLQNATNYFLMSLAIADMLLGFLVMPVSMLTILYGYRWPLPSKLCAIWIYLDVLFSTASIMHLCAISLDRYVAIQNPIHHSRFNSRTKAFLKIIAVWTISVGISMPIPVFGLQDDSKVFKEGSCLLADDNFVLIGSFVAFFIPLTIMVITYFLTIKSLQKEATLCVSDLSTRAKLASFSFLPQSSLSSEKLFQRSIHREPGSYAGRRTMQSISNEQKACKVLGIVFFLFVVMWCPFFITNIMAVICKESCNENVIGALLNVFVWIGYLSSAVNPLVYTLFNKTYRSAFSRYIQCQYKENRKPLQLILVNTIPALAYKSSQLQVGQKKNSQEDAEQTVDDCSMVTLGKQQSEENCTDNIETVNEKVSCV

| Ki (5-HT1A receptors) [nM] | Ki (5-HT2A receptors) [nM] | SMILES | binding to 5-HT1A serotonin receptor sites (in words) [1] |
| --- | --- | --- | --- |
| – | – | O=C1CC2(CCCC2)CC(=O)N1CCCCN1CCN(c2ncccn2)CC1 [Buspirone, {4-[4-(2-pyrimidinyl)-1-piperazinyl]butyl}-8-azaspiro[4.5]decane-7,9-dione] | high affinity and selectivity |
| 119 ± 8 | 309 ± 1 | O=c1c2ccccc2c(=O)n(-c2ccccc2)n1CCCCN1CCN(c2ccccc2)CC1 [Compound 8c, 3-[4-(4-phenyl-1-piperazinyl)butyl]-2-phenyl-2,3-dihydrophthalazine-1,4-dione] | – |
| 19 ± 1 | 409 ± 17 | O=c1ccc(=O)n(-c2ccccc2)n1CCCCN1CCN(c2ccccc2)CC1 [Compound 9c, 2-[4-(4-phenyl-1-piperazinyl)butyl]-1-phenyl-1,2-dihydropyridazine-3,6-dione] | – |
| – | – | CC1(C)CC(=O)N(CCCCN2CCN(c3ncccn3)CC2)C(=O)C1 [Gepirone] | high affinity and selectivity |
| – | – | O=C1c2ccccc2S(=O)(=O)N1CCCCN1CCN(c2ncccn2)CC1 [Ipsapirone] | high affinity and selectivity |

Reference: PMC6236407 (Molecules : A Journal of Synthetic Chemistry and Natural …, 2001)
